From ChEMBL document CHEMBL4622939, “Synthesis and anti-proliferative activity of a novel 1,2,3-triazole tethered chalcone acetamide derivatives” (Bioorg Med Chem Lett, 2020)

Tests used:
Type in all cases: functional, cell-based
[1] = tested on: SK-N-SH; assay: Antiproliferative activity against human SK-N-SH cells assessed as cell growth inhibition by MTT assay
[2] = tested on: A549; assay: Antiproliferative activity against human A549 cells assessed as cell growth inhibition by MTT assay
[3] = tested on: MCF7; assay: Antiproliferative activity against human MCF7 cells assessed as cell growth inhibition by MTT assay
[4] = tested on: HeLa; assay: Antiproliferative activity against human HeLa cells assessed as cell growth inhibition by MTT assay

Row | Structure (SMILES) | IC50 [1] [µM] | IC50 [2] [µM] | IC50 [3] [µM] | IC50 [4] [µM]
1 | CCCCCCCCn1cc(/C=C/C(=O)c2ccc(NC(=O)CN3CCC(Cc4ccccc4)CC3)cc2)nn1 | 57 | 43.8 | 52.6 | 78.6
2 | CCCCCCCCCCn1cc(/C=C/C(=O)c2ccc(NC(=O)CN3CCC(Cc4ccccc4)CC3)cc2)nn1 | 33.3 | 67.7 | 55.2 | 71.7
3 | CCCCCCCCCCn1cc(/C=C/C(=O)c2ccc(NC(=O)CN3CCN(C(=O)OC(C)(C)C)CC3)cc2)nn1 | 77.8 | 45.4 | 40 | 30.2
4 | CCCCCCCCn1cc(/C=C/C(=O)c2ccc(NC(=O)CN3CCN(c4ccccc4)CC3)cc2)nn1 | 41.4 | 52.4 | 31.9 | 33.8
5 | O=C(CN1CCN(c2ccc([N+](=O)[O-])cc2)CC1)Nc1ccc(C(=O)/C=C/c2cn(Cc3ccc(Br)cc3)nn2)cc1 | 26.4 | 45.5 | 31.6 | 26.6
6 | O=C(CN1CCN(c2ccccc2)CC1)Nc1ccc(C(=O)/C=C/c2cn(Cc3ccc(Br)cc3)nn2)cc1 | 72.4 | 42.1 | 49.2 | 79.7
7 | O=C(CN1CCC(Cc2ccccc2)CC1)Nc1ccc(C(=O)/C=C/c2cn(Cc3ccc(Br)cc3)nn2)cc1 | 42.9 | 40 | 54.5 | 41.9
8 | CCCCCCCCn1cc(/C=C/C(=O)c2ccc(NC(=O)CN3CCN(c4ccc([N+](=O)[O-])cc4)CC3)cc2)nn1 | 51.4 | 45.4 | 49.1 | 30.2
9 | CCCCCCCCCCn1cc(/C=C/C(=O)c2ccc(NC(=O)CN3CCN(c4ccccc4)CC3)cc2)nn1 | 39.5 | 52.1 | > 100 | 59.1
10 | CCCCCCCCCCn1cc(/C=C/C(=O)c2ccc(NC(=O)CN3CCN(c4ccccc4F)CC3)cc2)nn1 | 34.4 | 57 | 40.4 | 47.8
11 | CCCCCCCCn1cc(/C=C/C(=O)c2ccc(N)cc2)nn1 | 28.8 | 26.9 | 31 | 26.9
12 | CCCCCCCCn1cc(/C=C/C(=O)c2ccc(NC(=O)CN3CCN(c4ccccc4F)CC3)cc2)nn1 | 60.3 | 47.1 | 68.6 | 33.8
13 | CCCCCCCCCCn1cc(/C=C/C(=O)c2ccc(N)cc2)nn1 | 83.4 | 35.6 | 52.6 | 73.5
14 | COc1ccccc1N1CCN(CC(=O)Nc2ccc(C(=O)/C=C/c3cn(Cc4ccc(Br)cc4)nn3)cc2)CC1 | 28 | 34 | 36.8 | 26.4
15 | CCCCCCCCCCn1cc(/C=C/C(=O)c2ccc(NC(=O)CN3CCN(c4ccccc4OC)CC3)cc2)nn1 | 87.6 | 62.5 | 44.8 | 50.8
16 | CCCCCCCCn1cc(/C=C/C(=O)c2ccc(NC(=O)CN3CCN(C(=O)OC(C)(C)C)CC3)cc2)nn1 | 38 | 43.3 | 98.4 | 32
17 | CCCCCCCCCCn1cc(/C=C/C(=O)c2ccc(NC(=O)CN3CCN(c4ccc([N+](=O)[O-])cc4)CC3)cc2)nn1 | 40.9 | 64.5 | 44.4 | 65.9

Further lines, results first:

Row | IC50 [1] [µM] | IC50 [2] [µM] | IC50 [3] [µM] | IC50 [4] [µM] | Structure (SMILES)
18 | 21.5 | 34 | 30 | 26.8 | CCCCCCCCn1cc(/C=C/C(=O)c2ccc(NC(=O)CN3CCN(c4ccccc4OC)CC3)cc2)nn1
19 | 8.3 | 8.67 | 10.1 | 7.95 | O=C(CBr)Nc1ccc(C(=O)/C=C/c2cn(Cc3ccc(Br)cc3)nn2)cc1
20 | 8.68 | 9.74 | 9.76 | 7.41 | CCCCCCCCCCn1cc(/C=C/C(=O)c2ccc(NC(=O)CBr)cc2)nn1
21 | 25.2 | 15.8 | 25.3 | 16.4 | Nc1ccc(C(=O)/C=C/c2cn(Cc3ccc(Br)cc3)nn2)cc1
22 | 12.8 | 14.7 | 11.3 | 9.12 | O=C(CN1CCN(c2ccccc2F)CC1)Nc1ccc(C(=O)/C=C/c2cn(Cc3ccc(Br)cc3)nn2)cc1
23 | 8.46 | 11.6 | 12.9 | 8.42 | CCCCCCCCn1cc(/C=C/C(=O)c2ccc(NC(=O)CBr)cc2)nn1
24 | 25.8 | 38.4 | 31 | 18.9 | CC(C)(C)OC(=O)N1CCN(CC(=O)Nc2ccc(C(=O)/C=C/c3cn(Cc4ccc(Br)cc4)nn3)cc2)CC1
25 | 2.85 | 3.24 | 3.7 | 2.78 | COc1cccc2c1C(=O)c1c(O)c3c(c(O)c1C2=O)C[C@@](O)(C(=O)CO)C[C@@H]3O[C@H]1C[C@H](N)[C@H](O)[C@H](C)O1 [DOXORUBICIN]
